One assay relates to Ramos tumors. Kind of assay: Ramos tumor xenograft in nude mice. The assay is classed as in vivo, mouse. The method, then:
Mouse tumor xenograft studies exploring combination therapies were performed using nude mice (Harlan) and Ramos or Daudi human tumor lines. Ramos or Daudi tumor cells were grown in T150 flasks in IMDM/10% FBS until they reached 80% confluency. Five million (5×10^6) cells were used as a tumor inoculum per mouse. Cells were injected subcutaneously in the right flank using PBS in a total volume of 0.1 ml or 5.0×1 0^7/ml. Nude mice were allowed to develop tumors and sorted into groups based on tumor size/volume. For each treatment group, 12 mice with a mean tumor volume of approximately 222 mm^3 (range =152-296mm^3) were used. Some mean tumor volumes ranging from 237-251 mm^3 were also used. […] Tumor volume was measured daily with calipers until completion of the experiment (sacrifice or regression).
Mouse tumor xenograft studies were performed using nude mice (Harlan) and Ramos or Daudi human tumor lines. Three different studies were performed based on tumor type and tumor size at the time of treatment with the TRU-016 or other test reagent. Ramos or Daudi tumor cells were grown and (5×10^6) cells were injected subcutaneously in the right flank to inoculate each treated mouse with the tumor. Nude mice were allowed to develop tumors and sorted into groups based on tumor size/volume. In the first study, for each treatment group, 12 mice with a mean tumor volume of 155-237 mm^3 were used. […] Tumor volume was measured daily with calipers until completion of the experiment (sacrifice or regression).
Ramos and Daudi tumor cells were separately grown and (5×10^6) cells were injected subcutaneously in the right flank of mice to initiate the formation of mouse tumor xenografts. After tumor development, mice were sorted into groups based on tumor size/volume (day 0). […] Tumor volume was blindly measured three times weekly with calipers until completion of the experiment (sacrifice or regression).

Assay [1] has as its target T1, CD37 cell surface receptor (Homo sapiens, UniProt P11049).
T1 construct: Human PBMCs were isolated over LSM density gradients and incubated with unconjugated TRU-016; endogenous in cells; host or cells: human PBMC (CD19-positive B lymphocyte gate)
T1 sequence (P11049 1-281): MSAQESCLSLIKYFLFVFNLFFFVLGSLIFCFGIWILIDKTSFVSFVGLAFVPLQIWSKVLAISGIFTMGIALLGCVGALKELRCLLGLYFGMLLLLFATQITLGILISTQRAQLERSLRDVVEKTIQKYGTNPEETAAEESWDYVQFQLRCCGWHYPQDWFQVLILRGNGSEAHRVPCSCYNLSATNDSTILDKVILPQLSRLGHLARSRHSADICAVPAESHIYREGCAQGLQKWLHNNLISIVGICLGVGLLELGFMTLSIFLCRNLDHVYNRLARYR
In words: TRU-016 binding to human PBMC, two-color flow cytometry. The method, then:
Experiments were also performed to determine that the binding specificity of the parent antibody to the CD37 cell surface receptor is preserved in TRU-016. Human PBMCs were isolated over LSM density gradients and incubated with unconjugated TRU-016 and PE-conjugated anti-human CD19. Cells were washed and incubated with 1:100 FITC GAH IgG (Fc specific) for 45 minutes on ice. Cells were washed and analyzed by two-color flow cytometry on a FACsCalibur instrument using Cell Quest software. Cells were gated for B lymphocytes or non-B lymphocytes by CD19 staining.
With increasing concentrations of TRU-016, the FITC signal on the B lymphocyte (CD19 positive gate) increased rapidly from 0.01-1.0 μg/ml, until it reached saturation at approximately 1 μg/mL or a mean fluorescence intensity (MFI) of 1000. […] Thus, the staining pattern of the G28-1 murine monoclonal antibody is preserved with TRU-016 (FIG. 1C).
Background: A flow cytometer gives signals particle by particle.

The next assay relates to DHL-4 B cells. In words: CDC assay on DHL-4 B cells. The assay is classed as cell-based. To be noted: FIG. 7. As for the experimental part:
Cells were suspended in Iscoves (#12440-053, Gibco/Invitrogen, Granland, N.Y.) at 5×10E^5 cells/well in 75 μl. […] Binding reactions were allowed to proceed for 45 minutes prior to centrifugation and washing in serum free Iscoves. Cells were resuspended in Iscoves with human serum (#A113, Quidel, San Diego, Calif.) at the indicated concentrations. The cells were incubated 60 minutes at 37° C. Cells were washed by centrifugation and resuspended in 125 μl PBS with 2% FBS (#16140-071, Gibco, Invitrogen, Grand Island, N.Y.), staining media. The cells were transferred to FACS cluster tubes (#4410, CoStar, Corning, N.Y.) and 125 μl staining media with 5 μl propidium iodide (PI, #P-16063, Molecular Probes, Eugene Oreg.) was added. Samples were incubated 15 minutes at room temperature in the dark prior to analysis by flow cytometry using a FACsCalibur and CellQuest software (Becton Dickinson).

Another assay deals with BJAB cells. In words: Annexin V/PI apoptosis analysis, BJAB. The assay is classed as cell-based.
Assay [2] has as its system Rituximab-resistant cells (Raji 4RH and RL 4RH). In words: direct cytotoxicity in rituximab-resistant cells, annexin/PI. The assay is classed as cell-based. To be noted: TRU-016 5 μg/mL, rituximab 10 μg/mL, five-fold excess goat anti-human IgG, 24 hours. As for the experimental part: Direct cytoxicity was measured by annexin/PI staining and cell viability (percent) was calculated relative to control cells (cells treated with herceptin).

“Also recorded” adds a separate entry of the source.

Procedure for BJAB cells: Experiments examining the effect of B cell targeted SMIPS on B cell line apoptosis were performed. Each SMIP was tested individually and then in combination. Samples were analyzed at both 24 and 48 hours after initiation of incubation reactions. […] In addition, 20 μg/mL goat anti-human IgG was added to reactions in order to cross link reagents on the cell surface. Cells were then stained with Annexin V-FITC and propidium iodide using the BD Pharmigen Apoptosis Detection Kit I (#556547), and processed according to kit instructions. Briefly, cells were washed twice with cold PBS and resuspended in “binding buffer” at 1×10^6 cells/mL. One hundred microliters of the cells in binding buffer were then stained with 5 μl of Annexin V-FITC and 5 μl of propidium iodide. The cells were gently vortexed and incubated in the dark at room temperature for 15 minutes. Four hundred microliters of binding buffer was then added to each sample. They were then read and analyzed on a FACsCalibur (Becton Dickinson) instrument using Cell Quest software (Becton Dickinson).

Take “G28-1 scFv VH11S(SSC—P)H WCH2 WCH3 [TRU-016]”: in the assay on Ramos tumors (Ramos tumors, 200 μg, pooled data from 3 experiments), the “long-term complete regression of tumors (tumor regression rate)” value came out at 20%. In addition, the “average tumor volume after treatment” value in the assay with Ramos tumors (Ramos, 200 μg/mouse IV days 0, 2, 4, 6, 8, versus huIgG) is “smaller than that observed using the negative control (huIgG)”. Besides, in the assay on Ramos tumors (established Ramos tumors, 200 μg), the “Median Survival Time” value was 16 days. In addition, the “Percentage of Tumor- Free Mice at Day 90” value in the assay with Ramos tumors (established Ramos tumors, 200 μg, IV days 0, 2, 4, 6, 8) was 20%. The “survival time / median survival time” value in the assay on Ramos tumors (established Ramos tumors, combination vs TRU-016 p=0.028, vs rituximab p=0.045) is “inhibition of tumor growth and improved survival times equivalent to rituximab”. Further, the “tumor growth and median survival” value in the assay on Ramos tumors (mice with the smaller Ramos tumors) was “inhibition of tumor growth and increased median survival times”. In addition, in assay [1] (B lymphocyte (CD19 positive gate)), the “mean fluorescence intensity (MFI) at saturation” value was determined as 1000. Besides, the “staining of / binding to the non-B lymphocyte population” value in assay [1] (CD19 negative gate) was “much lower level of binding; also recorded: detectable, but very low”. For the same substance, the “binding to human peripheral blood B lymphocytes” value in assay [1] (flow cytometry, FIG. 1C) is given as “high level, specific binding”. In addition, the “concentration at which FITC signal on B lymphocytes (CD19 positive gate) reached saturation” value in assay [1] (human PBMC, FITC GAH IgG detection) was “approximately 1 μg/mL”. For the same substance, in the assay with DHL-4 B cells, the “CDC killing of DHL-4 B cells” value is “little or no activity alone”. Besides, the “Annexin V Positive” value with BJAB cells (Bjab, 20 μg/mL SMIP, goat anti-human IgG crosslinking) is 30.6. The “effect on apoptosis of cell lines” value in the assay on BJAB cells (in the presence of crosslinking, BJAB, Ramos, Daudi, Table 2) is “more significant effect on apoptosis of cell lines than TRU-015 alone”. Moreover, in assay [2], the “cell toxicity (cell viability relative to herceptin-treated cells)” value was “greater cell toxicity than rituximab”.

The values above are taken from patent publication US10143748B2, “B-cell reduction using CD37-specific and CD20-specific binding molecules” (Emergent Product Development Seattle, LLC, priority 2005, dated 2018).
